Experiments:
CB1 = CB1 (Homo sapiens (Human), UniProt P21554); assay: CB1/CB2 Functional Assay (GTPγ[35S]), CB1 membranes; assay type: biochemical
Experimental: A dose response curve was generated at eight concentrations in duplicate on CB1 and CB2 in light of reference agonists. The reference agonists for cannabinoid receptors was CP55,940. See FIGS. 1A, 1B, 2A, 2B, 3A and 3B.
Membranes (CB1, ES-110-MG or CB2, ES-111-MG) were mixed with GDP (volume:volume) and incubated for at least 15 min on ice. In parallel, GTPγ[^35S] were mixed with the beads (volume:volume) just before starting the reaction. The following reagents were successively added in the wells of an Optiplate: 50 μl of ligand, 20 μl of the membranes:GDP mix, 10 μl of assay buffer for agonist testing and 20 μl of the GTPγ[^35S]: beads mix. The plates were covered with a topseal, shaken on an orbital shaker for 2 min, and then incubated between 30 to 60 min. at room temperature. Then the plates were centrifuged for 10 min at 2000 rpm, incubated at room temperature between 1 to 4 hours and counted for 1 min with a PerkinElmer TopCount reader.

CB2 = CB2 (Homo sapiens (Human), UniProt P34972); assay: Radioligand competition binding, CHO-K1 membranes, [3H]CP 55,940; conditions: 1 nM [3H]CP 55,940, read-out: Mean Ki (nM) hCB2
Experimental: Mukherjee, S., et al., Species Comparison and Pharmacological Characterization of Rat and Human CB2 Cannabinoid Receptors, Eur J Pharmacol, 2004, 505:1-9. […] IC50 were determined by non-linear regression using one site competition equation. The inhibition constants (Ki) were calculated using the Cheng Prusoff equation (Ki=IC50/(1+(L/KD)), where L=concentration of radioligand in the assay, and KD=affinity of the radioligand for the receptor).

rat CB1 (rCB1) = rat CB1 (rCB1) (Rattus norvegicus (Rat), UniProt P20272); assay: cAMP activation assay rCB1; assay type: cell-based
Experimental: The test was performed in 96 well plates. For testing, 12 μl of cells (2×10^3 cells/well) were mixed with 12 μl of agonist at increasing concentrations. […] The plates were then incubated for 30 min at room temperature. After addition of the lysis buffer, cAMP concentrations were estimated, according to the manufacturer specification, with the HTRF kit from Cis-Bio International (Catalogue number 62AM2PEB).

[1] = system: paclitaxel-induced neuropathy; assay: Prevention of neuropathy induced by paclitaxel; assay type: in vivo, rat
Experimental: A mixture of saline and CREMOPHOR® ELP 10% was used as vehicle for paclitaxel. It was injected at a concentration of 1.0 mg/kg intraperitoneally to the chemotherapy-treated group of rats on 4 consecutive days for a final cumulative dose of 4 mg/kg to 18 rats.
Paw withdrawal thresholds were determined daily in both hind paws of each animal using calibrated von Frey monofilaments according to an up-down procedure. A series of von Frey filaments with exponentially incremental degrees of stiffness (0.4, 0.7, 1.2, 2.0, 3.6, 5.5, 8.5, and 15.1 g) was used to measure the 50% threshold for both hindpaw withdrawal in awake, unrestrained rats. Chaplan, S. R., Quantitative assessment of tactile allodynia in the rat paw, Journal of Neuroscience Methods, 1994, 53:55-63. Brisk paw withdrawal from the pressure of a filament gently bent against the plantar surface of the paw was defined as a positive response, and absence of withdrawal within 6 sec was considered a negative response. The series of filaments touched the hindpaw in sequential ascending or descending order of stiffness until the threshold of response was crossed (allowing about 10 sec between each increment). Each time the threshold was crossed, the direction of stimulus presentation was reversed and the procedure resumed. Four responses were collected after the first threshold detection, and the 50% withdrawal thresholds was interpolated. In cases in which the response thresholds fall outside the range of detection, 15.1 and 0.25 g were assigned for continuous negative or positive responses, respectively, to the limits of stimulation. FIG. 17 and FIG. 18 show results from these experiments and that peripheral neuropathy started to develop within a few days. FIG. 18 reflects that a plateau was reached by the 10th day.
Group 1 of rats received paclitaxel for four days, as described immediately above in subpart (A) titled “Paclitaxel-induced Neuropathy.” In group 2, a dose of 15 mg/kg of the compound of Example 3, injected intraperitoneally was administered 30 minutes prior to the administration of paclitaxel. In group 3, vehicle of the compound of Example 3 was administered 30 min prior to the administration of paclitaxel. Paw withdrawal thresholds were determined daily in both hind paws of each animal using calibrated von Frey monofilaments according to an up-down procedure as described immediately above in subpart (A) titled “Paclitaxel-induced Neuropathy.” The results are shown in FIG. 17.
FIGS. 19A and 19B show results from an experiment in which three groups of rats were administered 0.25 mL of the compound of Example 3 or the vehicle, a mixture of NMP, propylene glycol, chromophore ELP (25%, 25%, 10%) in sterile water 30 min prior to the administration of paclitaxel. Two of the three experimental groups continued to receive either the vehicle or the compound of Example 3 daily for 11 more days.

naïve rats = assay: Open field chamber testing; assay type: in vivo, rat; conditions: i.p.: Example 3 15 mg/kg, WIN 55,212-2 7 mg/kg, haloperidol 1 mg/kg
Experimental: The automated open-field chamber (Med Associates ENV-515 Test Environment, St. Albans, Vt.) 43.2×43.2×30.5 cm (L×W×H) equipped with three pairs of 16 infrared arrays that continually monitored the animal's movement was used to determine potential CNS effects of the compound of Example 3, WIN55212-2, and haloperidol in naïve rats. Rats were individually tested 15 min after i.p. drug administration. The infrared beams were set 2.5 cm apart horizontally and at a height of 3 cm above the floor, with the rearing array set at 12 cm from the floor. The area in the box was divided into 4 equal quadrants (zones), with data collected within each quadrant and across quadrants (zone entries). An ambulatory movement was defined as a motion of at least 5 cm and was coded by quadrant. Vertical movements were counted when the rat moved vertically a minimum of 12 cm from the floor. Zone entries were defined as an entry into a zone (from another zone). Entry into a zone was counted when the rat was far enough into the zone to break 2 sets of photoelectric beams for the new zone beams during an ambulatory movement.

CB1, sequence (P21554 whole entry): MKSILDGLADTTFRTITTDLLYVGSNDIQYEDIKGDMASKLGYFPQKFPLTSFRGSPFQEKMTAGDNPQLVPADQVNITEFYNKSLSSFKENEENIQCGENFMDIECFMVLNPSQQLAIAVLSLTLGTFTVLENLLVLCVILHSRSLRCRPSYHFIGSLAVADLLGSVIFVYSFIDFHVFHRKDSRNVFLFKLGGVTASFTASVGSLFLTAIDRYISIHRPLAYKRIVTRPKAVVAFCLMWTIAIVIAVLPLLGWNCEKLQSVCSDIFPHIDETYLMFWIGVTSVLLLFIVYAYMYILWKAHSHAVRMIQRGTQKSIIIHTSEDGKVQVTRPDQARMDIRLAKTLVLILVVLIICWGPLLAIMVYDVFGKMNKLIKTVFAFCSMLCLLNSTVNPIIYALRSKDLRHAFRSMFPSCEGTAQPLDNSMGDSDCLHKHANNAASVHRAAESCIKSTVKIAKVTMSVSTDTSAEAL

SMILES: CC1(Cc2ccccc2)COc2cc(C(=O)N3CCCCC3)ccc21 (stereo not shown) [Example 3, 3-benzyl-3-methyl-2,3-dihydrobenzofuran-6-carboxylic acid-piperidine amide]
- Compound Function (CB1): Agonist
- % Activation Average (CB1; reference agonist CP55,940): 22.85%
- Ki (CB2): 422 ± 123 nM
- activity at rCB1 receptors (rat CB1 (rCB1)): did not exhibit any activity
- EC50 (rat CB1 (rCB1); read-out: Agonist EC50 (mean ± s.e. mean) cAMP activation assays rCB1): > 10 µM
- development of paclitaxel-evoked mechano-allodynia ([1]; 15 mg/kg for 4 days only): did not prevent but significantly prevented the severity
- prevention of paclitaxel-induced neuropathy, share of rats ([1]; administered for 14 days (4 days concomitant with paclitaxel and further 10 days)): 100%
- prevention of paclitaxel-induced neuropathy ([1]; administered for four days only): short-lived prevention
- development of paclitaxel-evoked mechano-allodynia ([1]; continued 15 mg/kg IP daily): completely prevented
- exploratory behavior in the open field (distance traveled, ambulatory time, rearing, zone entries) (naïve rats): absence of psychoactive cannabinoid effect

From patent publication US9339486B2, “Heterocyclic modulators of cannabinoid receptors” (THE CLEVELAND CLINIC FOUNDATION, priority 2008, dated 2016)
